Legend:
[1] = tested on: IL-1β, TNF-α, MCP-1, CXCL2 in serum; assay: AIA model, serum cytokines by ELISA; assay type: in vivo, Sprague-Dawley rats; details: rat AIA, high-dose group (60 mg/kg)
Method: Thirty 4-week-old male Sprague-Dawley rats (weighing 120–130 g) were randomly divided into 6 groups (5 rats per group) after 1 week of adaptive feeding, namely the normal group, model group, low-dose experimental group (15 mg/kg), medium-dose experimental group (30 mg/kg), high-dose experimental group (60 mg/kg), and positive control group (30 mg/kg). Starting from Day 0 of the experiment, rats in the administration groups and model group were injected intradermally with 0.1 mL of CFA into the left hind paw to induce AIA, while rats in the normal group were injected intradermally with an equal volume (0.1 mL) of normal saline as a control. After 13 consecutive days of feeding, rats treated with CFA successfully developed typical AIA symptoms. […] During the experiment, the body weight, mental state, activity ability, hair color changes, and paw appearance changes of the rats were observed and recorded daily. In addition, on Day 0 of the experiment (baseline period), the basic paw volume of all rats was accurately measured using a plethysmometer, which served as a reference standard for subsequent evaluation of inflammation severity. From Day 13 to Day 28 of the experiment, the paw volume of the rats was measured repeatedly every 3 days. The degree of paw swelling was quantified by calculating the change in paw volume relative to the baseline. […] The cytokine levels in serum were measured. […]

NE = target: T1, NE (Homo sapiens, UniProt P08246); assay: Recombinant NSPs isolated enzyme assay, NE; assay type: biochemical; details: read-out: NE Enz (IC50: μM)
T1 construct: purchased MedChemExpress
Description: The protocol for evaluating the inhibitory potency of compounds against other cathepsins referred to the CTSC activity assay. Recombinant human CTSB, CTSL, CTSS and CTSK for testing were also purchased from R&D Systems Biotechnology Company. Recombinant human Cat G, NE, and PR3 For testing were purchased from MedChemExpress. A multi-functional microplate reader was used to measure the absorption of Z-Leu-Arg-AMC at excitation/emission wavelengths of 380/460 nm to assess the activity changes of CTSB and CTSL, while the absorption of MCA-Arg-Pro-Lys-Pro-Val-Glu-NVAL-Trp-Arg-Lys(DNP)-NH2 at 320/405 nm was measured to evaluate the activity changes of CTSS and CTSK. Different assay buffers were prepared for diluting samples and measuring the activities of specific NSPs: a buffer containing 50 mM Tris and 750 mM NaCl (pH 7.4) was used for NE and PR3; a buffer containing 50 mM Tris, 750 mM NaCl, 5 mM EDTA (pH 7.4) was used for Cat G; and a buffer containing 25 mM MES, 50 mM NaCl, 5 mM DTT (pH 6.0) was used for CTSC. Synthetic substrates were employed to assess the activities of NSPs and CTSC: H-Gly-Arg-AMC for CTSC, N-MeSuc-Ala-Ala-Pro-Val-pNA for NE, aminobenzoyl-Val-Ala-Asp-Cys-Ala-Asp-Gln-ethylenediamine 2,4-dinitrophenyl for PR3, and N-Suc-Ala-Ala-Pro-Phe-pNA for Cat G. Each group of tests was independently repeated at least 3 times, and IC50 values were calculated using SPSS 10.0.

CTSC = CTSC (Homo sapiens, UniProt P53634); assay: Cellular thermal shift assay (CETSA) in U937 cells; assay type: binding; design: endogenous in cells; host or cells: U937; details: DMSO control 49 °C
Method: The Western blot experiments in this study were performed as described below. Cells in the logarithmic growth phase were collected in appropriate numbers according to different experimental purposes. After being thoroughly washed with phosphate-buffered saline and centrifuged, the cell pellets were resuspended in phosphate-buffered saline to obtain single-cell suspensions. Cells were fully lysed using RIPA buffer (Beyotime, P0013B) supplemented with EDTA-free protease and phosphatase inhibitor (Abcam, ab201120). Total cellular protein solutions were obtained after centrifugation to remove cell debris. The isolated proteins were quantified using the BeyoBCA protein assay kit (Beyotime, P0399M) following the operational protocol. The quantified protein samples were thoroughly mixed with protein loading buffer, boiled on a dry bath for 5 min, and then cooled to room temperature for Western blot analysis. […] Finally, enhanced chemiluminescent horseradish peroxidase substrate (Tanon Science & Technology Co., Ltd., Shanghai, China, 180-506) was used to visualize protein bands on a ChemiDoc XRS system (Bio-Rad Laboratories, Inc., Hercules, CA, USA), and the protein bands were quantified using Image Lab analysis software (Version 6.1) (Bio-Rad). […]

Sequence of CTSC (P53634 25-463): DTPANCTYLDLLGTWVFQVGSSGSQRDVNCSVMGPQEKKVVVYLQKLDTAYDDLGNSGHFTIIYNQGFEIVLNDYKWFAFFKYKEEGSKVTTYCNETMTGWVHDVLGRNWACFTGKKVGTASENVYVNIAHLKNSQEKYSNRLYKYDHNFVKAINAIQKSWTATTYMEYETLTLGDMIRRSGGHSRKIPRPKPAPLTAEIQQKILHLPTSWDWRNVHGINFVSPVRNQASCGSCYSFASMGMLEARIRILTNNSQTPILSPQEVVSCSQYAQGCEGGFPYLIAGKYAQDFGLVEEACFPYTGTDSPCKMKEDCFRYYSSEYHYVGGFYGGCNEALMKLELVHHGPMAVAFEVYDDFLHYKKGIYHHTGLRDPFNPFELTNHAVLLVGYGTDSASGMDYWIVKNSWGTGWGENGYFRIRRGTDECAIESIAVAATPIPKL
T1 sequence (P08246 30-267): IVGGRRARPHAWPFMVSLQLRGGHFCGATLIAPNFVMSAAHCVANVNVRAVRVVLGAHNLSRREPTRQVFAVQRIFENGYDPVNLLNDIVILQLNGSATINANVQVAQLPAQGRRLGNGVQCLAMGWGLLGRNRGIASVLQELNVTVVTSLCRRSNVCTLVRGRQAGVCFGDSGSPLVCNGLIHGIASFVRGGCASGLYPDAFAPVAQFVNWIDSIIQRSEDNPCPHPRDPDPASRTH

C[C@@H]1C[C@H]2OC(=O)[C@@]3(C)CCC[C@@](C)([C@@H]23)[C@@]1(O)CCc1ccoc1 [Marrubiin, marrubiin]
serum levels of IL-1β, TNF-α, MCP-1, CXCL2 [1]: significantly lower than those in model group and control group | IC50 (NE): > 10 µM | temperature at which significant CTSC degradation occurred (CTSC; 10 μM): approximately 61 °C | temperature at which significant CTSC degradation occurred (CTSC; 20 μM): ~67 °C
